Source: patent US9968603B2, “Systems for sustained intraocular delivery of low solubility compounds from a port delivery system implant” (ForSight Vision4, Inc., priority 2013, dated 2018)
Converted amounts (≈) assume the structure as drawn. Structures can show the parent of a compound that is named as a salt. Where two headings read alike, the source gives them in different places. One block for each compound: values may come before it.

Experiments:
[1] = Aqueous solubility; format: physicochemical
[2] = Formulations with amphiphilic agents and non-aqueous solvents (no complexing agent), concentration dissolved; format: physicochemical; conditions: neat PEG 300
[3] = Formulation (solubility) screening with cyclodextrins, concentrations achieved; format: physicochemical; conditions: for SBE-β-CD [CAPTISOL] Formulations (CD Excess), concentration: CD excess: Pazopanib 20 (5x), 50 (2.5x), 80 (2.5x), Sunitinib 2.5x, 4x, Axitinib 6x, Linifanib 8x, Motesanib 2x; for Expected Concentration Achieved: achieved vs expected formulation concentration
Method: For example, solid therapeutic agents are mixed in an aqueous solution with cyclodextrin, buffering agent, and/or other formulation agents of the current invention. The pH of the resulting mixture is adjusted with a base, for example, NaOH, or an acid, for example, citric acid. The mixture is then filtered, and the resulting filtered solution is used to fill the PDS.
A solubility screening of the therapeutic agent of the invention was carried out during the pre-formulation stage. For example, the solubility of the therapeutic agents in acids, cyclodextrin (CD) (e.g., SBEβCD (CAPTISOL®), HPβCD, HPγCD), hydrophilic stabilizing agents (e.g., PVP), and buffering agents (e.g., citric acid, histidine) were explored. Systematic formulation screening may include determination of CD:therapeutic agent ratio, pH, therapeutic agent concentration, and agents.
For example, in the formulation process with complexing agents such as cyclodextrins, a vial of solid therapeutic agent was mixed with a vial containing a solution of CD, acid, and agents in water. The pH of the resulting mixture was adjusted by NaOH. The mixture was then be filtered, and the resulting filtered solution was used to fill the PDS device or used to determine its stability.

[4] = Viscosity and water content of cyclodextrin formulations; format: physicochemical; conditions: 80 mg/mL Pazopanib
[5] = Diffusion coefficient from Release Rate Index and single exponential model, compared with Stokes-Einstein prediction; conditions: 21 mg/mL Sunitinib, 2.5:1 molar ratio HPβCD
Method: The measured diffusion coefficient was compared to the diffusion coefficient predicted (using Stokes-Einstein equation to correct for MW (via volume of diffusing species) and temperature (via temperature dependence of the viscosity of water)) for a molecule of that molecular weight.
The rate was assessed by using the measured Release Rate Index (RRI) and volume for a particular device and using the single exponential diffusion model to determine a measured diffusion coefficient for a particular formulation and device combination. The measured diffusion coefficient was compared to the diffusion coefficient predicted (using Stokes-Einstein equation to correct for MW (via volume of diffusing species) and temperature (via temperature dependence of the viscosity of water)) for a molecule of that molecular weight.

SMILES: CNC(=O)c1ccccc1Sc1ccc2c(/C=C/c3ccccn3)n[nH]c2c1 [Axitinib, N-Methyl-2-((3-((1E)-2-(pyridin-2-yl)ethenyl)-1H-indazol-6-yl)sulfanyl)benzamide]
solubility ([1]; PBS, aqueous buffer, read-out: solubility in PBS): 0.3 µg/mL (≈ 0.776 µM)

SMILES: CC1(C)CNc2cc(NC(=O)c3cccnc3NCc3ccncc3)ccc21 [Motesanib, N-(2,3-Dihydro-3,3-dimethyl-1H-indol-6-yl)-2-[(4-pyridinylmethyl)amino]-3-pyridinecarboxamide]
SBE-β-CD [CAPTISOL] Formulations (CD Excess), concentration [3]: 30 mg/mL | Expected Concentration Achieved [3]: No

SMILES: CCN(CC)CCNC(=O)c1c(C)[nH]c(/C=C2\C(=O)Nc3ccc(F)cc32)c1C.O=C(O)CC(O)C(=O)O [Sunitinib, Butanedioic acid, hydroxy-, (2S)-, compound with N-[2-(diethylamino)ethyl]-5-[(Z)-(5-fluoro-1,2-dihydro-2-oxo-3H-indol-3-ylidine)methyl]-2,4-dimethyl-1H-pyrrole-3-carboxamide (1:1)]
solubility ([1]; aqueous solution, pH 4.1, aqueous buffer, read-out: solubility): > 25000 µg/mL | solubility ([1]; aqueous solution, pH 7.4, aqueous buffer, read-out: solubility): 10 µg/mL | measured diffusion coefficient [5]: 3.3e-7 cm^2/s | times lower than the predicted single molecule diffusion coefficient [5]: 20 times

The next lines start with the values.

concentration formulated [2]: 20000 µg/mL | SBE-β-CD [CAPTISOL] Formulations (CD Excess), concentration [3]: 6 mg/mL | Expected Concentration Achieved [3]: No
SMILES: Cc1ccc(F)c(NC(=O)Nc2ccc(-c3cccc4[nH]nc(N)c34)cc2)c1 [Linifanib, N-[4-(3-Amino-1H-indazol-4-yl)phenyl]-N′-(2-fluoro-5-methylphenyl)urea]

solubility ([1]; aqueous solution with 0.1% polysorbate-20, aqueous with cosolvent or surfactant or cyclodextrin): 0.1 µg/mL | solubility in phosphate buffered saline ([1]; neutral pH): insoluble | viscosity ([4]; 2.2:1 molar ratio CAPTISOL): at least 5 centipoise | water content ([4]; 5:1 CAPTISOL): approximately 0.5 g/mL
SMILES: Cc1ccc(Nc2nccc(N(C)c3ccc4c(C)n(C)nc4c3)n2)cc1S(N)(=O)=O [Pazopanib, 5-[[4-[(2,3-dimethyl-2H-indazol-6-yl)methylamino]-2-pyrimidinyl]amino]-2-methylbenzenesulfonamide monohydrochloride]
